Test results published in ChEMBL document CHEMBL1201861, “Genomics of Drug Sensitity in Cancer screening data, Wellcome Trust Sanger Institute”.

Columns and labels:
Assay in all cases: cells
LB2518-MEL = assay type: functional, cell-based; settings: Homo sapiens;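 also: growth inhibition of human LB2518-MEL cells, measured with a cell viability assay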
Description: SANGER: Inhibition of human LB2518-MEL cell growth in a cell viability assay.

HT-144 = assay type: functional, cell-based, Homo sapiens; settings: Homo sapiens, HT-144
Description: SANGER: Inhibition of human HT-144 cell growth in a cell viability assay.

Becker = assay type: functional, cell-based, Homo sapiens; settings: Homo sapiens, Becker;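 also: growth inhibition of Becker cells, read out with a cell viability assay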
Description: SANGER: Inhibition of human Becker cell growth in a cell viability assay.

TE-1 = assay type: functional, cell-based, Homo sapiens; settings: Homo sapiens, TE-1;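 also: growth inhibition of the human TE-1 cell line, read out with a cell viability assay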
Description: SANGER: Inhibition of human TE-1 cell growth in a cell viability assay.

NTERA-2-cl-D1 = assay type: functional, cell-based, Homo sapiens; settings: Homo sapiens, NTERA-2-cl-D1;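 also: inhibition of cell growth, measured with a cell viability assay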
Description: SANGER: Inhibition of human NTERA-S-cl-D1 cell growth in a cell viability assay.

Ramos-2G6-4C10 = assay type: functional, cell-based, Homo sapiens; settings: Homo sapiens, Ramos-2G6-4C10;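 also: growth inhibition of the cell line, measured by a cell viability read-out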
Description: SANGER: Inhibition of human Ramos-2G6-4C10 cell growth in a cell viability assay.

ES8 = assay type: functional, cell-based, Homo sapiens; settings: Homo sapiens, ES8;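 also: growth inhibition of human ES8 cells, read out with a cell viability assay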
Description: SANGER: Inhibition of human ES8 cell growth in a cell viability assay.

SW 954 = assay type: functional, cell-based, Homo sapiens; settings: Homo sapiens, SW 954;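 also: growth inhibition of SW954 human cancer cells, read out as cell viability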
Description: SANGER: Inhibition of human SW954 cell growth in a cell viability assay.

AM-38 = assay type: functional, cell-based, Homo sapiens; settings: Homo sapiens, AM-38;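 also: growth inhibition of AM-38 cells of human origin, read out by a cell viability assay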
Description: SANGER: Inhibition of human AM-38 cell growth in a cell viability assay.

HDLM-2 = assay type: functional, cell-based, Homo sapiens; settings: Homo sapiens, HDLM-2;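 also: cell viability assay measuring suppression of HDLM-2 proliferation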
Description: SANGER: Inhibition of human HDLM-2 cell growth in a cell viability assay.

ML-2 = assay type: functional, cell-based, Homo sapiens; settings: Homo sapiens, ML-2;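 also: growth inhibition of ML-2 cells, measured with a cell viability readout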
Description: SANGER: Inhibition of human ML-2 cell growth in a cell viability assay.

ES5 = assay type: functional, cell-based, Homo sapiens; settings: Homo sapiens, ES5;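 also: growth inhibition of human ES5 cells, read out by a cell viability assay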
Description: SANGER: Inhibition of human ES5 cell growth in a cell viability assay.

TE-9 = assay type: functional, cell-based, Homo sapiens; settings: Homo sapiens, TE-9;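 also: cell growth inhibition, measured with a cell viability readout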
Description: SANGER: Inhibition of human TE-9 cell growth in a cell viability assay.

SK-LMS-1 = assay type: functional, cell-based, Homo sapiens; settings: Homo sapiens, SK-LMS-1;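 also: growth inhibition of human SK-LMS-1 cells, read out with a cell viability assay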
Description: SANGER: Inhibition of human SK-LMS-1 cell growth in a cell viability assay.

MEG-01 = assay type: functional, cell-based, Homo sapiens; settings: Homo sapiens, MEG-01;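 also: growth inhibition of MEG-01 cells, read out by a cell viability assay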
Description: SANGER: Inhibition of human MEG-01 cell growth in a cell viability assay.

Calu-6 = assay type: functional, cell-based, Homo sapiens; settings: Homo sapiens, Calu-6;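 also: growth of human Calu-6 cells, read out by a cell viability assay, IC50 marking inhibition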
Description: SANGER: Inhibition of human Calu-6 cell growth in a cell viability assay.

CTB-1 = assay type: functional, cell-based, Homo sapiens; settings: Homo sapiens, CTB-1
Description: SANGER: Inhibition of human CTB-1 cell growth in a cell viability assay.

K5 = assay type: functional, cell-based, Homo sapiens; settings: Homo sapiens, K5
Description: SANGER: Inhibition of human K5 cell growth in a cell viability assay.

SNB-75 = assay type: functional, cell-based, Homo sapiens; settings: Homo sapiens, SNB-75;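 also: cell viability assay measuring growth inhibition of human SNB-75 cells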
Description: SANGER: Inhibition of human SNB75 cell growth in a cell viability assay.

SW684 = assay type: functional, cell-based, Homo sapiens; settings: Homo sapiens, SW684; read-out: IC50;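 also: growth inhibition of human SW684 cells, measured by a cell viability assay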
Description: SANGER: Inhibition of human SW684 cell growth in a cell viability assay.

SF-539 = assay type: functional, cell-based, Homo sapiens; settings: Homo sapiens, SF-539;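 also: Read-out is a cell viability assay, with IC50 reflecting inhibition of cell growth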
Description: SANGER: Inhibition of human SF539 cell growth in a cell viability assay.

EW-13 = assay type: functional, cell-based, Homo sapiens; settings: Homo sapiens, EW-13; read-out: IC50;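 also: growth inhibition of EW-13 cells, read out with a cell viability assay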
Description: SANGER: Inhibition of human EW-13 cell growth in a cell viability assay.

L-428 = assay type: functional, cell-based, Homo sapiens; settings: Homo sapiens, L-428
Description: SANGER: Inhibition of human L-428 cell growth in a cell viability assay.

GAK = assay type: functional, cell-based, Homo sapiens; settings: Homo sapiens, GAK;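 also: cell growth inhibition read out by a cell viability assay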
Description: SANGER: Inhibition of human GAK cell growth in a cell viability assay.

D-502MG = assay type: functional, cell-based, Homo sapiens; settings: Homo sapiens, D-502MG
Description: SANGER: Inhibition of human D-502MG cell growth in a cell viability assay.

SHP77 = assay type: functional, cell-based, Homo sapiens, SHP-77; settings: Homo sapiens, SHP77;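 also: growth inhibition of human SHP-77 cells measured by a cell viability assay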
Description: SANGER: Inhibition of human SHP-77 cell growth in a cell viability assay.

NCI-H209 = assay type: functional, cell-based, Homo sapiens; settings: Homo sapiens, NCI-H209;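 also: growth inhibition of human NCI-H209 cells, measured by a cell viability assay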
Description: SANGER: Inhibition of human NCI-H209 cell growth in a cell viability assay.

MOLT-4 = assay type: functional, cell-based, Homo sapiens; settings: Homo sapiens, MOLT-4;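 also: growth inhibition of MOLT-4 cells, determined with a cell viability readout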
Description: SANGER: Inhibition of human MOLT-4 cell growth in a cell viability assay.

LS-123 = assay type: functional, cell-based, Homo sapiens; settings: Homo sapiens, LS-123
Description: SANGER: Inhibition of human LS-123 cell growth in a cell viability assay.

NCI-H82 = assay type: functional, cell-based, Homo sapiens; settings: Homo sapiens, NCI-H82;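 also: growth inhibition of NCI-H82 cells, measured with a cell viability readout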
Description: SANGER: Inhibition of human NCI-H82 cell growth in a cell viability assay.

NB13 = assay type: functional, cell-based, Homo sapiens; settings: Homo sapiens, NB13;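 also: cell viability readout measuring growth inhibition of human NB13 cells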
Description: SANGER: Inhibition of human NB13 cell growth in a cell viability assay.

DB = assay type: functional, cell-based, Homo sapiens; settings: Homo sapiens, DB
Description: SANGER: Inhibition of human DB cell growth in a cell viability assay.

A3-KAW = assay type: functional, cell-based, Homo sapiens; settings: Homo sapiens, A3-KAW;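 also: growth inhibition of human A3-KAW cells, read out with a cell viability assay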
Description: SANGER: Inhibition of human A3-KAW cell growth in a cell viability assay.

TGW = assay type: functional, cell-based, Homo sapiens; settings: Homo sapiens, TGW;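 also: growth inhibition of human TGW cells, read out with a cell viability assay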
Description: SANGER: Inhibition of human TGW cell growth in a cell viability assay.

MS-1 = assay type: functional, cell-based, Homo sapiens; settings: Homo sapiens, MS-1
Description: SANGER: Inhibition of human MS-1 cell growth in a cell viability assay.

TE-6 = assay type: functional, cell-based, Homo sapiens; settings: Homo sapiens, TE-6;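 also: growth inhibition of TE-6 cells, read out with a cell viability assay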
Description: SANGER: Inhibition of human TE-6 cell growth in a cell viability assay.

ES6 = assay type: functional, cell-based; settings: Homo sapiens;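 also: growth inhibition of human ES6 cells, read out with a cell viability assay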
Description: SANGER: Inhibition of human ES6 cell growth in a cell viability assay.

SJSA-1 = assay type: functional, cell-based, Homo sapiens; settings: Homo sapiens, SJSA-1;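 also: growth inhibition of human SJSA-1 cells, read out through a cell viability measurement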
Description: SANGER: Inhibition of human SJSA-1 cell growth in a cell viability assay.

LB996-RCC = assay type: functional, cell-based, Homo sapiens; settings: Homo sapiens, LB996-RCC
Description: SANGER: Inhibition of human LB996-RCC cell growth in a cell viability assay.

A704 = assay type: functional, cell-based; settings: Homo sapiens;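 also: growth inhibition of human A704 cells, read out with a cell viability assay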
Description: SANGER: Inhibition of human A704 cell growth in a cell viability assay.

DEL = assay type: functional, cell-based, Homo sapiens; settings: Homo sapiens, DEL;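 also: growth inhibition of the human DEL cell line, read out with a cell viability assay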
Description: SANGER: Inhibition of human DEL cell growth in a cell viability assay.

MHH-NB-11 = assay type: functional, cell-based, Homo sapiens; settings: Homo sapiens, MHH-NB-11;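 also: growth inhibition of human MHH-NB-11 cells, read out by a cell viability assay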
Description: SANGER: Inhibition of human MHH-NB-11 cell growth in a cell viability assay.

IST-MEL1 = assay type: functional, cell-based, Homo sapiens; settings: Homo sapiens, IST-MEL1;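 also: growth inhibition of the cell line, read out with a cell viability assay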
Description: SANGER: Inhibition of human IST-MEL1 cell growth in a cell viability assay.

EM-2 = assay type: functional, cell-based, Homo sapiens; settings: Homo sapiens, EM-2;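 also: growth inhibition of EM-2 cells, read out with a cell viability assay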
Description: SANGER: Inhibition of human EM-2 cell growth in a cell viability assay.

LXF-289 cell line = assay type: functional, cell-based; settings: Homo sapiens
Description: SANGER: Inhibition of human LXF-289 cell growth in a cell viability assay.

LB831-BLC = assay type: functional, cell-based, Homo sapiens; settings: Homo sapiens, LB831-BLC;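 also: growth inhibition of LB831-BLC cells, read out with a cell viability assay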
Description: SANGER: Inhibition of human LB831-BLC cell growth in a cell viability assay.

NMC-G1 = assay type: functional, cell-based, Homo sapiens; settings: Homo sapiens, NMC-G1;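 also: growth inhibition of the NMC-G1 cell line, measured with a cell viability read-out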
Description: SANGER: Inhibition of human NMC-G1 cell growth in a cell viability assay.

NB69 = assay type: functional, cell-based, Homo sapiens; settings: Homo sapiens, NB69;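 also: growth inhibition of NB69 cells, determined by a cell viability assay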
Description: SANGER: Inhibition of human NB69 cell growth in a cell viability assay.

SW982 = assay type: functional, cell-based; settings: Homo sapiens;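 also: growth inhibition of SW982 cells, read out with a cell viability assay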
Description: SANGER: Inhibition of human SW982 cell growth in a cell viability assay.

A388 = assay type: functional, cell-based; settings: Homo sapiens;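 also: growth inhibition of human A388 cells, read out with a cell viability assay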
Description: SANGER: Inhibition of human A388 cell growth in a cell viability assay.

TK-10 = assay type: functional, cell-based, Homo sapiens; settings: Homo sapiens, TK-10;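 also: growth inhibition of TK-10 cells, read out in a cell viability assay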
Description: SANGER: Inhibition of human TK10 cell growth in a cell viability assay.

Compound: COc1ccc(-c2cc3nccn3c(Nc3ncccc3C(N)=O)n2)cc1OC
- IC50 (LB2518-MEL): > 8 µM
- IC50 (HT-144): 3.72 µM
- IC50 (Becker): > 8 µM
- IC50 (TE-1): > 8 µM
- IC50 (NTERA-2-cl-D1): 1.96 µM
- IC50 (Ramos-2G6-4C10): 2.95 µM
- IC50 (ES8): 5.98 µM
- IC50 (SW 954): > 8 µM
- IC50 (AM-38): > 8 µM
- IC50 (HDLM-2): > 8 µM
- IC50 (ML-2): > 8 µM
- IC50 (ES5): > 8 µM
- IC50 (TE-9): > 8 µM
- IC50 (SK-LMS-1): > 8 µM
- IC50 (MEG-01): 5.28 µM
- IC50 (Calu-6): 6.87 µM
- IC50 (CTB-1): > 8 µM
- IC50 (K5): 2.93 µM
- IC50 (SNB-75): > 8 µM
- IC50 (SW684): > 8 µM
- IC50 (SF-539): > 8 µM
- IC50 (EW-13): 1.47 µM
- IC50 (L-428): > 8 µM
- IC50 (GAK): > 8 µM
- IC50 (D-502MG): > 8 µM
- IC50 (SHP77): > 8 µM
- IC50 (NCI-H209): > 8 µM
- IC50 (MOLT-4): 5.81 µM
- IC50 (LS-123): > 8 µM
- IC50 (NCI-H82): > 8 µM
- IC50 (NB13): 3.24 µM
- IC50 (DB): 6.64 µM
- IC50 (A3-KAW): 0.74 µM
- IC50 (TGW): > 8 µM
- IC50 (MS-1): 7.7 µM
- IC50 (TE-6): 6.97 µM
- IC50 (ES6): 1.24 µM
- IC50 (SJSA-1): 3.77 µM
- IC50 (LB996-RCC): 1.7 µM
- IC50 (A704): > 8 µM
- IC50 (DEL): 3.07 µM
- IC50 (MHH-NB-11): > 8 µM
- IC50 (IST-MEL1): 4.61 µM
- IC50 (EM-2): > 8 µM
- IC50 (LXF-289 cell line): > 8 µM
- IC50 (LB831-BLC): 1.02 µM
- IC50 (NMC-G1): 7.55 µM
- IC50 (NB69): > 8 µM
- IC50 (SW982): 0.775 µM
- IC50 (A388): 5.95 µM
- IC50 (TK-10): 6.96 µM

Compound: C=CC(=O)N1CCCC(Nc2nc(Nc3ccc(N(C)C(=O)CC)cc3)nc3[nH]cnc23)C1 (configuration not stated)
- IC50 (LB2518-MEL): > 10.2 µM
- IC50 (HT-144): > 10.2 µM
- IC50 (Becker): > 10.2 µM
- IC50 (TE-1): > 10.2 µM
- IC50 (NTERA-2-cl-D1): > 10.2 µM
- IC50 (Ramos-2G6-4C10): > 10.2 µM
- IC50 (ES8): > 10.2 µM
- IC50 (SW 954): 2.56 µM
- IC50 (AM-38): > 10.2 µM
- IC50 (HDLM-2): > 10.2 µM
- IC50 (ML-2): > 10.2 µM
- IC50 (ES5): > 10.2 µM
- IC50 (TE-9): > 10.2 µM
- IC50 (SK-LMS-1): > 10.2 µM
- IC50 (MEG-01): > 10.2 µM
- IC50 (Calu-6): > 10.2 µM
- IC50 (CTB-1): > 10.2 µM
- IC50 (K5): > 10.2 µM
- IC50 (SNB-75): > 10.2 µM
- IC50 (SW684): > 10.2 µM
- IC50 (SF-539): > 10.2 µM
- IC50 (EW-13): > 10.2 µM
- IC50 (L-428): > 10.2 µM
- IC50 (GAK): > 10.2 µM
- IC50 (D-502MG): > 10.2 µM
- IC50 (SHP77): > 10.2 µM
- IC50 (NCI-H209): > 10.2 µM
- IC50 (MOLT-4): > 10.2 µM
- IC50 (LS-123): > 10.2 µM
- IC50 (NCI-H82): > 10.2 µM
- IC50 (NB13): > 10.2 µM
- IC50 (DB): > 10.2 µM
- IC50 (A3-KAW): > 10.2 µM
- IC50 (TGW): > 10.2 µM
- IC50 (MS-1): > 10.2 µM
- IC50 (TE-6): > 10.2 µM
- IC50 (ES6): > 10.2 µM
- IC50 (SJSA-1): > 10.2 µM
- IC50 (LB996-RCC): > 10.2 µM
- IC50 (A704): > 10.2 µM
- IC50 (DEL): > 10.2 µM
- IC50 (MHH-NB-11): > 10.2 µM
- IC50 (IST-MEL1): > 10.2 µM
- IC50 (EM-2): > 10.2 µM
- IC50 (LXF-289 cell line): > 10.2 µM
- IC50 (LB831-BLC): 2.95 µM
- IC50 (NMC-G1): > 10.2 µM
- IC50 (NB69): > 10.2 µM
- IC50 (SW982): > 10.2 µM
- IC50 (A388): 7.41 µM
- IC50 (TK-10): > 10.2 µM
